{"source": "patent US20250114337A1", "about": "“METHODS FOR VASCULAR REGENERATION AND WOUND TREATMENT” (THE METHODIST HOSPITAL, priority 2022, published 2025)", "key": {"BJ fibroblasts": {"test_system": "BJ fibroblasts", "assay": "in vitro transdifferentiation of fibroblasts to induced endothelial cells (iECs)", "format": "cell-based, human", "settings": "fibroblasts exposed during transdifferentiation protocol", "description": "Innate immune activation is required for transdifferentiation. […] 131 (3): p. 300-9). iECs generated from this protocol manifest high fidelity for endothelial lineage. They incorporate acetylated LDL (FIG. 2B), form tubular networks (FIG. 2C), have similar transcriptomes as genuine endothelial cells, and increase capillary density and perfusion when injected into the ischemic hindlimb of the mouse (FIG. 2D) (Sayed, N., et al., Circulation, 2015. 131 (3): p. 300-9). This protocol can be utilized to study the role of O-GlcNAcylation in transdifferentiation in vitro.\nO-GlcNAcylation is required for in vitro transdifferentiation. To define if the elevation of O-GlcNAcylation is required for transdifferentiation, fibroblasts were exposed to Thiamet G (TMG) (an OGA inhibitor that enhances O-GlcNAcylation) or DON (an inhibitor for GFAT that acts upstream in the hexosamine biosynthesis pathway and reduces O-GlcNAcylation). The number of iECs generated during transdifferentiation is increased when fibroblasts are exposed to TMG and decreased when exposed to DON (FIG. 5A). […] The role of O-GlcNAcylation of specific epigenetic regulars e.g., HIRA during transdifferentiation can also be addressed.\nTo define if the elevation of O-GlcNAcylation is required for transdifferentiation, inhibitors of O-GlcNAcylation including OSMI (an inhibitor for OGT) and DON (an inhibitor for GFAT that acts upstream in the hexosamine biosynthesis pathway and reduces O-GlcNAcylation) or an activator of O-GlcNAcylation. Thiamet G (TMG) (an OGA inhibitor that enhances O-GlcNAcylation), were delivered to BJ fibroblasts undergoing transdifferentiation. The number of CD31 expressing iECs generated during transdifferentiation decreases when exposed to OSMI or DON and increases when fibroblasts are exposed to TMG (FIG. 17B). Then OGT or OGA were knocked down using shRNA in the BJ fibroblasts (FIG. 17C) and performed transdifferentiation protocol in vitro."}, "[1]": {"test_system": "ischemic hindlimb mice model", "assay": "hindlimb ischemia recovery in WT C57BL/6 mice, laser doppler imaging", "format": "in vivo, mouse", "settings": "OSMI4 10 mg/kg 0, 1, 2 days post-surgery; younger mice (8 to 12 weeks)", "procedure": "O-GlcNAcylation manipulations regulated recovery from tissue ischemia. To determine if the change in O-GlcNAcylation can modulate limb ischemia recovery, and contributes to vascular recovery, WT C57BL/6 mice were treated with the O-GlcNAcylation inhibitor, OSMI4, or O-GlcNAcylation enhancer, TMG 0, 1, 2 days post-surgery. Age is an important factor that determines recovery, and younger mice are known to have a more robust angiogenic response as compared with older mice. Accordingly, younger mice (between 8 to 12 weeks) were used to assess the impairment of angiogenesis by OSMI (which reduces O-GlcNAcylation). Older mice (around 20 weeks) were used to assess the enhancement of angiogenesis by TMG (which increases O-GlcNAcylation). […] It will be determined whether this beneficial effect is mediated by increased DNA accessibility and enhanced transdifferentiation.\nTo determine if O-GlcNAcylation manipulations can modulate the overall effect of vascular recovery from limb ischemia. WT C57BL/6 mice were treated with the O-GlcNAcylation inhibitor. OSMI4 (10 mg/kg), or O-GlcNAcylation enhancer. TMG (10 mg/kg) 0, 1, 2 days post-surgery (FIG. 19A)."}, "H3.3 deposition": {"test_system": "H3.3 deposition", "assay": "H3.3-SNAP tagging, quench-chase-pulse TMR-Star labeling", "format": "cell-based", "settings": "Poly I:C + OSMI", "description": "To identify the role of O-GlcNAcylation of histone variant h3.3 chaperone protein, HIRA, on transdifferentiation. The effects of O-GlcNAcylation on proteins that may be involved in the epigenetic regulation of transdifferentiation can be assessed. Nucleosome turnover is known to be tightly interrelated with DNA accessibility, and histone variant h3.3 is a hallmark of regulatory regions in the mammalian genome and is required to establish open chromatins. HIRA is the chaperone for h3.3, it forms a complex with other subunits, including ASF1. UBN, and CABIN, and is responsible for h3.3 deposition on the chromatin. OGT interacts with and O-GlcNAcylates HIRA, both of which are critical for the formation of the HIRA-h3.3 complex and h3.3 deposition and its dependent gene activation. […] The role of HIRA in transdifferentiation with fibroblasts that have HIRA knocked down or overexpressed can be determined. […] Thereafter, the de novo deposited SNAP-h3.3 will be pulse-labeled with the TMR-Star, which is a readily detectable and quantifiable red-fluorescent substrate. […]\nTo test whether innate immune activation enhances the H3.3 deposition in the chromatin, the H3.3-SNAP tagging system was generated where the newly synthesized H3.3 will be detected by fluorescent TMR-Star labeling with quench-chase-pulse strategy."}}, "note": "Entries after “also recorded” stand apart in the source; their conditions may differ."}
{"smiles": "CCOC(=O)CN(Cc1cccs1)C(=O)[C@H](NS(=O)(=O)c1cc2ccc(=O)[nH]c2cc1Cl)c1ccccc1OC", "note": "[OSMI]", "values": [{"measurement": "iEC yield (number of CD31 expressing iECs generated during transdifferentiation)", "setting": "BJ fibroblasts", "value": "decreases; also recorded: impair"}, {"measurement": "recovery of blood flow post femoral artery ligation (revascularization)", "setting": "[1]", "value": "impaired recovery; also recorded: impairs"}, {"measurement": "Poly I:C-enhanced H3.3 deposition", "setting": "H3.3 deposition", "value": "impaired"}]}
